The assay addresses Factor D (Homo sapiens (Human), UniProt P00746). The assay is described as follows: biochemical. Format: biochemical. As to conditions: read-out: IC50.

Sequence of Factor D (P00746 26-253): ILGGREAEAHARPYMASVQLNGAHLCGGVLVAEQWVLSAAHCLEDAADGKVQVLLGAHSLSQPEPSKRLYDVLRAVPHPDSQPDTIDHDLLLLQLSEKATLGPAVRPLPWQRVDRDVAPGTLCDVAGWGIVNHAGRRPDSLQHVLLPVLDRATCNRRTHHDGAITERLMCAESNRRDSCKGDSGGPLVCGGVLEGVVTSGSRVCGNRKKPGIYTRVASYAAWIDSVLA

In the case of `CO[C@H]1[C@@H](C(=O)NC2(c3ccc(Cl)cc3)CC2)N(C(=O)Cn2cc(C(C)=O)c3ccccc32)C[C@@H]1F` [Example 573, (2S,3S,4S)-1-[2-(3-Acetyl-indol-1-yl)-acetyl]-4-fluoro-3-methoxy-pyrrolidine-2-carboxylic acid [1-(4-chloro-phenyl)-cyclopropyl]-amide], the IC50 was determined as 865 nM.
For the compound `NC(=O)c1cn(CC(=O)N2C[C@H](F)[C@@H](N)[C@H]2C(=O)NCc2cccc(Cl)c2F)c2ccccc12` [Example 574, 1-{2-[(2S,3S,4S)-3-Amino-2-(3-chloro-2-fluoro-benzylcarbamoyl)-4-fluoro-pyrrolidin-1-yl]-2-oxo-ethyl}-1H-indole-3-carboxylic acid amide], the IC50 is 217 nM.
With `CC(=O)c1cn(CC(=O)N2C[C@H](F)[C@@H](N)[C@H]2C(=O)NCc2cccc(Cl)c2F)c2ccccc12` [Example 575, (2S,3S,4S)-1-[2-(3-Acetyl-indol-1-yl)-acetyl]-3-amino-4-fluoro-pyrrolidine-2-carboxylic acid 3-chloro-2-fluoro-benzylamide] the figure was 843 nM.
On to `CC(=O)c1cn(CC(=O)N2C[C@@H](N)[C@H](F)[C@H]2C(=O)NCc2cccc(Cl)c2F)c2ccccc12` [Example 576, (2R,3S,4R)-1-[2-(3-Acetyl-indol-1-yl)-acetyl]-4-amino-3-fluoro-pyrrolidine-2-carboxylic acid 3-chloro-2-fluoro-benzylamide], for which the half-inhibitory concentration (IC50) turned out to be 400 nM.
With `NC(=O)c1cn(CC(=O)N2C[C@H](F)C[C@H]2C(=O)NCc2cccc(Cl)c2F)c2ccc(O)cc12` [Example 577, 1-{2-[(2S,4R)-2-(3-Chloro-2-fluoro-benzylcarbamoyl)-4-fluoro-pyrrolidin-1-yl]-2-oxo-ethyl}-5-hydroxy-1H-indole-3-carboxylic acid amide] the figure was 71 nM; with `CC(=O)c1cn(CC(=O)N2C[C@H](F)C[C@H]2C(=O)NCc2cccc(Cl)c2F)c2ccc(O)cc12` [Example 579, (2S,4R)-1-[2-(3-Acetyl-5-hydroxy-indol-1-yl)-acetyl]-4-fluoro-pyrrolidine-2-carboxylic acid 3-chloro-2-fluoro-benzylamide], 39 nM.
The figure for `CC(=O)c1cn(CC(=O)N2C[C@](C)(F)C[C@H]2C(=O)NCc2cccc(Cl)c2F)c2ccc(O)cc12` [Example 580, (2S,4R)-1-[2-(3-Acetyl-5-hydroxy-indol-1-yl)-acetyl]-4-fluoro-4-methyl-pyrrolidine-2-carboxylic acid 3-chloro-2-fluoro-benzylamide] is 252 nM.
Regarding `CC(=O)c1cn(CC(=O)N2[C@@H]3C[C@@H]3C[C@H]2C(=O)NCc2cccc(Cl)c2F)c2ccc(O)cc12` [Example 581, (1R,3S,5R)-2-[2-(3-Acetyl-5-hydroxy-indol-1-yl)-acetyl]-2-aza-bicyclo[3.1.0]hexane-3-carboxylic acid 3-chloro-2-fluoro-benzylamide], the IC50 amounted to 60 nM.
With `CC(=O)c1cn(CC(=O)N2C[C@](C)(F)C[C@H]2C(=O)NCc2cccc(Cl)c2F)c2cc(O)ccc12` [Example 582, (2S,4R)-1-[2-(3-Acetyl-6-hydroxy-indol-1-yl)-acetyl]-4-fluoro-4-methyl-pyrrolidine-2-carboxylic acid 3-chloro-2-fluoro-benzylamide], the IC50 came out at 134 nM.
With `CC(=O)c1cn(CC(=O)N2[C@@H]3C[C@@H]3C[C@H]2C(=O)NCc2cccc(Cl)c2F)c2cc(O)ccc12` [Example 584, (1R,3S,5R)-2-[2-(3-Acetyl-6-hydroxy-indol-1-yl)-acetyl]-2-aza-bicyclo[3.1.0]hexane-3-carboxylic acid 3-chloro-2-fluoro-benzylamide] the figure was 38 nM; with `NC(=O)c1cn(CC(=O)N2C[C@H](F)C[C@H]2C(=O)NCc2cccc(Cl)c2F)c2cc(OCc3nn[nH]n3)ccc12` [Example 585, 1-{2-[(2S,4R)-2-(3-Chloro-2-fluoro-benzylcarbamoyl)-4-fluoro-pyrrolidin-1-yl]-2-oxo-ethyl}-6-(1H-tetrazol-5-ylmethoxy)-1H-indole-3-carboxylic acid amide], 17 nM.
With `CC(=O)c1cn(CC(=O)N2C[C@H](F)C[C@H]2C(=O)NCc2cccc(Cl)c2F)c2cc(OCc3nn[nH]n3)ccc12` [Example 586, (2S,4R)-1-{2-[3-Acetyl-6-(1H-tetrazol-5-ylmethoxy)-indol-1-yl]-acetyl}-4-fluoro-pyrrolidine-2-carboxylic acid 3-chloro-2-fluoro-benzylamide] the figure was 132 nM.
With `CC(=O)c1cn(CC(=O)N2[C@@H]3C[C@@H]3C[C@H]2C(=O)NCc2cccc(Cl)c2F)c2cc(OCc3nn[nH]n3)ccc12` [Example 587, (1R,3S,5R)-2-{2-[3-Acetyl-6-(1H-tetrazol-5-ylmethoxy)-indol-1-yl]-acetyl}-2-aza-bicyclo[3.1.0]hexane-3-carboxylic acid 3-chloro-2-fluoro-benzylamide] the figure was 79 nM; with `COc1ccc2c(c1)c(C(C)=O)cn2CC(=O)N1C[C@H](F)C[C@H]1C(=O)NCc1cccc(Cl)c1F` [Example 588, (2S,4R)-1-[2-(3-Acetyl-5-methoxy-indol-1-yl)-acetyl]-4-fluoro-pyrrolidine-2-carboxylic acid 3-chloro-2-fluoro-benzylamide], 31 nM.
With `CC(=O)c1cn(CC(=O)N2C[C@H](F)C[C@H]2C(=O)NCc2cccc(Cl)c2F)c2ccc(OCc3ccccn3)cc12` [Example 589, (2S,4R)-1-{2-[3-Acetyl-5-(pyridin-2-ylmethoxy)-indol-1-yl]-acetyl}-4-fluoro-pyrrolidine-2-carboxylic acid 3-chloro-2-fluoro-benzylamide], the IC50 was 237 nM.
As for `CC(=O)c1cn(CC(=O)N2C[C@H](F)C[C@H]2C(=O)NCc2cccc(Cl)c2F)c2ccc(OCc3ncccn3)cc12` [Example 590, (2S,4R)-1-{2-[3-Acetyl-5-(pyrimidin-2-ylmethoxy)-indol-1-yl]-acetyl}-4-fluoro-pyrrolidine-2-carboxylic acid 3-chloro-2-fluoro-benzylamide], the IC50 is 10 nM.
With `COCCOc1ccc2c(C(N)=O)cn(CC(=O)N3C[C@H](F)C[C@H]3C(=O)NCc3cccc(Cl)c3F)c2c1` [Example 591, 1-{2-[(2S,4R)-2-(3-Chloro-2-fluoro-benzylcarbamoyl)-4-fluoro-pyrrolidin-1-yl]-2-oxo-ethyl}-6-(2-methoxy-ethoxy)-1H-indole-3-carboxylic acid amide] the figure was 109 nM; with `COC(=O)COc1ccc2c(C(N)=O)cn(CC(=O)N3C[C@H](F)C[C@H]3C(=O)NCc3cccc(Cl)c3F)c2c1` [Example 592, (3-Carbamoyl-1-{2-[(2S,4R)-2-(3-chloro-2-fluoro-benzylcarbamoyl)-4-fluoro-pyrrolidin-1-yl]-2-oxo-ethyl}-1H-indol-6-yloxy)-acetic acid methyl ester], 115 nM.
The figure for `NC(=O)c1cn(CC(=O)N2C[C@H](F)C[C@H]2C(=O)NCc2cccc(Cl)c2F)c2cc(OCC(=O)O)ccc12` [Example 593, (3-Carbamoyl-1-{2-[(2S,4R)-2-(3-chloro-2-fluoro-benzylcarbamoyl)-4-fluoro-pyrrolidin-1-yl]-2-oxo-ethyl}-1H-indol-6-yloxy)-acetic acid] is 56 nM; for `NC(=O)c1cn(CC(=O)N2C[C@H](F)C[C@H]2C(=O)NCc2cccc(Cl)c2F)c2cc(OCCO)ccc12` [Example 594, 1-{2-[(2S,4R)-2-(3-Chloro-2-fluoro-benzylcarbamoyl)-4-fluoro-pyrrolidin-1-yl]-2-oxo-ethyl}-6-(2-hydroxy-ethoxy)-1H-indole-3-carboxylic acid amide] it is 85 nM; for `CC(=O)c1cn(CC(=O)N2C[C@H](F)C[C@H]2C(=O)NCc2cccc(Cl)c2F)c2cc(CC(=O)O)ccc12` [Example 595, (3-Acetyl-1-{2-[(2S,4R)-2-(3-chloro-2-fluoro-benzylcarbamoyl)-4-fluoro-pyrrolidin-1-yl]-2-oxo-ethyl}-1H-indol-6-yl)-acetic acid] it is 41 nM.
With `CC(=O)c1cn(CC(=O)N2[C@@H]3C[C@@H]3C[C@H]2C(=O)NCc2cccc(Cl)c2F)c2cc(CC(=O)O)ccc12` [Example 596, (3-Acetyl-1-{2-[(1R,3S,5R)-3-(3-chloro-2-fluoro-benzylcarbamoyl)-2-aza-bicyclo[3.1.0]hex-2-yl]-2-oxo-ethyl}-1H-indol-6-yl)-acetic acid] the figure was 95 nM; with `CC(=O)c1cn(CC(=O)N2C[C@H](F)C[C@H]2C(=O)NCc2cccc(Cl)c2F)c2cc(C(=O)O)ccc12` [Example 597, 3-Acetyl-1-{2-[(2S,4R)-2-(3-chloro-2-fluoro-benzylcarbamoyl)-4-fluoro-pyrrolidin-1-yl]-2-oxo-ethyl}-1H-indole-6-carboxylic acid], 14 nM.
As for `CC(=O)c1cn(CC(=O)N2[C@@H]3C[C@@H]3C[C@H]2C(=O)NCc2cccc(Cl)c2F)c2cc(C(=O)O)ccc12` [Example 598, 3-Acetyl-1-{2-[(1R,3S,5R)-3-(3-chloro-2-fluoro-benzylcarbamoyl)-2-aza-bicyclo[3.1.0]hex-2-yl]-2-oxo-ethyl}-1H-indole-6-carboxylic acid], the IC50 was found to be 14 nM.
The figure for `CC(=O)c1cn(CC(=O)N2C[C@](C)(F)C[C@H]2C(=O)NCc2cccc(Cl)c2F)c2cc(C(=O)O)ccc12` [Example 599, 3-Acetyl-1-{2-[(2S,4R)-2-(3-chloro-2-fluoro-benzylcarbamoyl)-4-fluoro-4-methyl-pyrrolidin-1-yl]-2-oxo-ethyl}-1H-indole-6-carboxylic acid] is 46 nM; for `CC(=O)c1cn(CC(=O)N2[C@@H]3C[C@@H]3C[C@H]2C(=O)NCc2cccc(Cl)c2F)c2c(C(=O)O)cccc12` [Example 601, 3-Acetyl-1-{2-[(1R,3S,5R)-3-(3-chloro-2-fluoro-benzylcarbamoyl)-2-aza-bicyclo[3.1.0]hex-2-yl]-2-oxo-ethyl}-1H-indole-7-carboxylic acid] it is 110 nM.
The figure for `CC(=O)c1cn(CC(=O)N2C[C@H](F)C[C@H]2C(=O)NCc2cccc(Cl)c2F)c2cc(OCc3ccc(C(=O)O)cc3)ccc12` [Example 602, 4-(3-Acetyl-1-{2-[(2S,4R)-2-(3-chloro-2-fluoro-benzylcarbamoyl)-4-fluoro-pyrrolidin-1-yl]-2-oxo-ethyl}-1H-indol-6-yloxymethyl)-benzoic acid] is 227 nM.

(Values after patent publication US9085555B2, “Complement pathway modulators and uses thereof” (priority 2011, dated 2015).)
